Here are results for seven molecules from patent publication US20090181942A1, “TRICYCLIC COMPOUNDS” (DAIICHI SANKYO COMPANY, LIMITED, priority 2005, published 2009).

For experiment [1], the target named is T1, rat squalene synthetase (Rattus norvegicus, UniProt Q02769).
T1 construct: the final sediment thus obtained was used as a microsomal fraction for the measurement of enzymatic activity; from tissue; host or cells: liver of eight-week-old SD male rats, washed 105,000 x g microsomal fraction
T1 sequence (Q02769 1-416): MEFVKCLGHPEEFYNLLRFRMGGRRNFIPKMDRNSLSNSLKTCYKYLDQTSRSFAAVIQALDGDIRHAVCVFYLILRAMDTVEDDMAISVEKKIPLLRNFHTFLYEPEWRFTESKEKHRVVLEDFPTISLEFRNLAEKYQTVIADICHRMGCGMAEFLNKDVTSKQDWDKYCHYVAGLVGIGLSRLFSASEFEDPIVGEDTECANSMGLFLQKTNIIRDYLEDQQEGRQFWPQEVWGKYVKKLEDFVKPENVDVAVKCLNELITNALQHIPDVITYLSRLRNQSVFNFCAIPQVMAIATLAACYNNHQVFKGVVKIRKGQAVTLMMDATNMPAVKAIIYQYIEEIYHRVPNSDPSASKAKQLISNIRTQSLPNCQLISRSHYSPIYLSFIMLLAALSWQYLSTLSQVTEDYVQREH
Briefly: Rat squalene synthetase inhibitory activity (rat liver microsomal fraction, [3H]farnesyl-pyrophosphate). It counts as biochemical. The note with it: rat liver microsomal fraction 30 μg/mL, 5 μM [3H]farnesyl-pyrophosphate, 37° C., 20 minutes; read-out: IC50 (squalene synthetase inhibitory activity: concentration inhibiting 50% of radioactivity incorporated into squalene). The protocol:
1. Rat Squalene Synthetase Inhibitory Activity
(1) Preparation of Enzyme Source
As an enzyme source, a microsomal fraction prepared from a rat liver was employed. First, eight-week-old SD male rats were subjected to laparotomy under anesthesia with pentobarbital sodium. […] To the liver thus obtained were added 0.3M sucrose, 1 mM dithiothreitol (DTT), 1 mM sodium ethylenediamine tetraacetate (EDTA) and various protease inhibitors. The resulting mixture was homogenized in the presence of a 10 mM phosphate buffer adjusted to pH 7.4 and centrifuged for 5 minutes at 2,000×g and for 15 minutes at 10,000×g. As the protease inhibitor, phenylmethanesulfonyl fluoride (PMSF), leupeptin and aprotinin were added to give the final concentrations of 1 mM, 10 μM, and 5 μg/mL, respectively. The supernatant after centrifugation was centrifuged further at 105,000×g for 60 minutes. The sediment thus obtained was suspended in a 10 mM phosphate buffer (pH 7.4) containing 1 mM DTT, 1 mM EDTA, and the above-described protease inhibitors and the resulting suspension was centrifuged at 105,000×g for 30 minutes, which operation was performed twice. After washing, the final sediment thus obtained was used as a microsomal fraction for the measurement of enzymatic activity.
(2) Measurement of Squalene Synthetase Inhibitory Activity
Squalene synthetase activity was measured in accordance with the method of Schechter, et al., described in Journal of Biological Chemistry, 267, 8628-8635 (1992). Described specifically, the compound of the present invention dissolved in water or dimethylsulfoxide (DMSO) was added to an enzyme reaction mixture (total amount: 50 μl) containing 5 mM reduced nicotinamide adenine dinucleotide phosphate (NADPH), 5 mM 3-[(3-cholamidopropyl)dimethylammonio]propanesulfonic acid (CHAPS), 10 mM potassium fluoride, 10 mM magnesium chloride, 10 mM DTT, 1 μM/mL NB-598 (squalene epoxydase inhibitor, Journal of Biological Chemistry, 265, 18075-180788 (1990)), 50 mM HEPES buffer (pH 7.4)), 30 μg/mL of the rat liver microsomal fraction, and 5 μM [^3H] farnesyl-pyrophosphate and the resulting mixture was reacted at 37° C. for 20 minutes (enzyme reaction was started by adding [^3H]farnesyl-pyrophosphate to the enzyme reaction mixture which had been incubated in advance at 37° C. for 10 minutes). To the enzyme reaction mixture was added 5 μl of 1M EDTA (pH 9.2) to terminate the enzyme reaction, followed by the addition of 5 μl of a 0.5% squalene ethanol solution. After spotting of a 40 μl portion of the resulting mixture on a plastic sheet for thin layer chromatography, development with 5% toluene-95% hexane and drying, these pots were visualized by exposure to iodine vapor and the band of squalene was identified. The spots were cut out with scissors and put in a vial container. To the container was added 10 mL of Aquasol-2 (product of New England Nuclear Research Products, USA) and radioactivity was measured by a liquid scintillation counter. The squalene synthetase inhibitory activity was expressed as a concentration (IC50) of the compound inhibiting 50% of radioactivity incorporated into squalene.

Experiment [2] concerns liver-cholesterol synthesis. Briefly: Rat single-dose liver-cholesterol synthesis inhibitory effect. It counts as in vivo. The note with it: Wistar male rats, 3 mg/kg orally, 14C-mevalonic acid i.p. one hour later, liver taken one hour after that, relative to control group. The method, then: 2. Rat Single-Dose Liver-Cholesterol Synthesis Inhibitory Effect
A rat single-dose liver-cholesterol synthesis inhibitory effect was measured as described below.
To each the compounds of the present invention was added a necessary amount of a 0.5% methyl cellulose solution immediately before use. Then, an equivalent molar amount of sodium hydroxide or sodium hydrogen carbonate was added to dissolve or suspend it in the resulting solution. To 6-week-old Wistar male rats were orally administered each of the compounds of the present invention (3 mg/kg), while only a 0.5% methyl cellulose solution was administered to a control group. One hour later, physiological saline of mevalonic acid (5 μCi/5 mL/kg) labeled with a radioisotope ^14C was intraperitoneally administered. The rats were sacrificed one hour later. To 1 g of the liver thus obtained from the rats was added 5 mL of a 15% KOH ethanol solution and the resulting mixture was left to stand for 15 hours. After heating at 75° C. for 2 hours, the reaction mixture was extracted with 5 mL of water and 10 mL of petroleum ether. The petroleum ether layer was collected, evaporated to dryness and then dissolved in 50 μl of a chloroform:acetone=2:1 solution. The cholesterol band was separated by silica gel thin layer chromatography (Art.5748, toluene:ethyl acetate=3:1) and cut out. It was put in a vial container, followed by the addition of 10 mL of Aquasol-2 (product of Packard BioScience Company). The radioactivity was measured using a liquid scintillation counter. A ratio of the radioactivity relative to that of a control group was determined and liver-cholesterol synthesis inhibitory activity (%) was calculated.

Structures are written as SMILES.

For `COc1cccc([C@H]2O[C@H](Cc3ncc(CCC(=O)O)s3)c3nnc(C(F)(F)F)n3-c3ccc(Cl)cc32)c1OC` (relative stereo) [Example 322, 3-({2-[(trans)-8-Chloro-6-(2,3-dimethoxyphenyl)-1-(trifluoromethyl)-4H,6H-[1,2,4]triazolo[4,3-a][4,1]benzoxazepin-4-yl]methyl}-1,3-thiazol-5-yl)propanoic Acid], the IC50 in experiment [1] was found to be 4.6 nM. For the same molecule, the “Liver-cholesterol synthesis inhibitory effect” value in experiment [2] is listed as 76%.

With `COC(=O)CCc1cnc(C[C@H]2S[C@H](c3cccc(OC)c3OC)c3cc(Cl)ccc3-n3c2nnc3C(F)(F)F)s1` (relative stereo) [Example 330, Methyl 3-({2-[(trans)-8-chloro-6-(2,3-dimethoxyphenyl)-1-(trifluoromethyl)-4H,6H-[1,2,4]triazolo[4,3-a][4,1]benzothiazepin-4-yl]methyl}-1,3-thiazol-5-yl)propanoate], the IC50 in experiment [1] was found to be 4.9 nM. Moreover, in experiment [2], the “Liver-cholesterol synthesis inhibitory effect” value came out at 75%. For `COc1cccc(C2SC(CC(=O)N3CCC(CC(=O)O)CC3)c3nnc(C(F)(F)F)n3-c3ccc(Cl)cc32)c1OC` (single isomer, unassigned) [Example 343, 2-(1-{2-[8-Chloro-6-(2,3-dimethoxyphenyl)-1-(trifluoromethyl)-4H,6H-[1,2,4]triazolo[4,3-a][4,1]benzothiazepin-4-yl]acetyl}-4-piperidinyl)acetic Acid] the same measures were 7.6 nM and 80%. As for `COc1cccc([C@H]2O[C@H](CCn3nnc(CC(=O)O)n3)c3cccn3-c3c(F)cc(Cl)cc32)c1OC` [Example 21, 2-(2-{2-[(4R,6S)-8-Chloro-6-(2,3-dimethoxyphenyl)-10-fluoro-4H,6H-pyrrolo[1,2-a][4,1]benzoxazepin-4-yl]ethyl}-2H-1,2,3,4-tetrazol-5-yl)acetic Acid], the “Liver-cholesterol synthesis inhibitory effect” value in experiment [2] stood at 68%. Take `O=C(O)CC1CCN(C(=O)CC2OC(c3cccc4ccccc34)c3cc(Cl)ccc3-n3cccc32)CC1` (stereo not drawn) [Example 210, 2-(1-{2-[8-Chloro-6-(1-naphthyl)-4H,6H-pyrrolo[1,2-a][4,1]benzoxazepin-4-yl]acetyl}-4-piperidinyl)acetic Acid]: in experiment [1], the IC50 came to 0.56 nM. Regarding `COc1cccc([C@H]2O[C@H](CCn3cc(C(=O)O)cn3)c3nccn3-c3ccc(Cl)cc32)c1OC` [Example 263, 1-{2-[(4R,6S)-8-Chloro-6-(2,3-dimethoxyphenyl)-4H,6H-imidazo[1,2-a][4,1]benzoxazepin-4-yl]ethyl}-1H-pyrazole-4-carboxylic Acid], in experiment [1], the IC50 is 3.9 nM. Besides, the “Liver-cholesterol synthesis inhibitory effect” value in experiment [2] is 84%. On the same counts, the results for `COc1cccc(C2SC(CC(=O)O)c3nnc(C(F)(F)F)n3-c3ccc(Cl)cc32)c1OC` (stereo not drawn) [Example 341, 2-[8-Chloro-6-(2,3-dimethoxyphenyl)-1-(trifluoromethyl)-4H,6H-[1,2,4]triazolo[4,3-a][4,1]benzothiazepin-4-yl]acetic Acid] are 4.6 nM and 90%.
